Assay results taken from patent publication US9328130B2, “Method of treating organism by biologically active compounds specifically delivered into mitochondria, pharmaceutical composition required for the use of the method and a compound applicable for this purpose” (MITOTECH S.A., priority 2005, dated 2016).

Legend:
[1] = Transfer across the planar bilayer phospholipid membrane; type: physicochemical; conditions: 50 mM TrisHCl pH 7.4; 10^−7 to 10^−5 M; distributes according to Nernst equation
Excerpt: The experimental method has been used several times before in the experiments aimed at the exploring of an ability of different ions to penetrate the planar bilayer lipid membrane and is described in details Liberman […]., 1969, Nature, 222, 1076-8. This method includes the use of two chambers filled in with water-based solution and separated by bilayer membrane, also the electrometrical registration of transfer of charged compounds capable of penetration across such membrane from one chamber to another. In our experiment the membrane was made of mixture of […] and diphytanoyl derivative of […] dissolved in decane; both chambers were filled with 50 mM TrisHCl, pH 7.4 containing 10^-7 M SkQ1.

[2] = Spontaneous oxidation of reduced (quinol) forms by air oxygen; type: physicochemical; conditions: 20 mM MOPS-KOH, pH=7.6; aerobic
Procedure: Stability of the reduced (quinols) forms of SkQ1 and MitoQ under aerobic conditions was examined by analysis of the absolute absorption spectra of these compounds in a range from 240 to 310 nm using double-beam spectrophotometer Pye Unicam SP1100, England. Quinone derivatives were reduced with sodium tetrahydroborate in the medium containing 20 mM MOPS-KOH, pH=7.6. […] The level of reduced quinones was estimated by the size of peak area using the weighing method; absolute absorption value at 267 nm (maximum absorption) was used as a control.

[3] = Oxidation of quinols by superoxide-anion radicals generated in xanthine oxidase/hypoxanthine system; type: biochemical
Excerpt: In order to compare antioxidant activity of the reduced forms, we measured the oxidation rate of quinols by superoxide-anion radicals generated in xanthine oxidase/hypoxanthine system.

[4] = system: respiratory chain of rat liver mitochondria; type: biochemical
Procedure: FIG. 5 describes the oxidation of quinols of “MitoQ” and “SkQ1” by respiratory chain of rat liver mitochondria energized with succinate (5 mM) in the presence of 2 μM rotenone. After complete reduction of […] the respiratory chain was blocked with 25 mM malonate and reoxidation rate of “MitoQ” and “SkQ1” was measured. In order to examine whether the test compounds (SkQ1 and MitoQ) can be reduced by the respiratory chain of mitochondria, changes of the ratio between oxidized and reduced forms of test compounds were measured in the presence of respiratory substrates in a medium used for isolation of rat liver mitochondria. The measurements were carried out in the presence of mitochondria (protein concentration 0.2 mg/ml).

human lung fibroblasts = experiment: Protection from apoptosis caused by H2O2; type: cell-based; conditions: preincubation with 20 nM for 6 days
Procedure: Normal diploid fibroblasts from human skin and lung, human uterus carcinoma cells (HeLa cells) and human lymphoma cells (U 937 strain) were used in this experiment. Cells were cultivated in standard media (DMEM or RPMI) in the presence of 10% fetal serum at 37° C. and 5% CO2. Experiments were carried out on the cultured cells grown to 30-50% confluency. H2O2 was added once and the cells were analyzed after 18-24 h of incubation. Apoptotic death was monitored by condensation of chromatin and nucleus fragmentation after staining the cells with Hoechst 33342 (1 μg/ml, 15 min). 300-500 cells were taken into account from each preparation and the final results are the average of 3-5 independent experiments. Necrosis was determined by staining of nuclei with propidium iodide (2 μg/ml, 5 min). […] It was confirmed that apoptosis in all cases was accompanied with decrease of mitochondrial membrane potential, release of cytochrome c from mitochondria into cytoplasm and activation of caspases.

Hela cells [5] = experiment: Transmission of apoptotic signal between inducer and recipient slides; type: cell-based, human; conditions: for apoptosis at slide-recipient: TNF
Procedure: HeLa cells were used in these experiments. Cells grown on a glass slide were treated with different apoptosis-inducing agents (tumor necrosis factor (TNF), staurosporine, H2O2) for 3 h. Then the glass slide with cells (inducer) was washed to remove these reagents and placed into Petri plate to come into contact with glass slide (recipient) with cells grown in the absence of any apoptosis-inducing agent. After 16-18 h of subsequent growth and staining the cells with Hoechst 33342 as described above, apoptosis at both glass slides was analyzed.
Thus the main mediator of apoptosis signal was H2O2.

[6] = Light-dependent inactivation of gramicidin channel in model lipid membrane with phthalocyanine photosensitizer; type: biochemical; conditions: SkQ1 at 1 μM
Hela cells [7] = experiment: Necrosis after photodynamic treatment (chloromethyl-X-rosamine, green light); type: cell-based, human
Procedure: Protection from photodynamic treatment was studied using cultured HeLa cells. Cells were incubated with photosensitizer chloromethyl-X-rosamine (0.5 μM, 15 min) which was then selectively accumulated within mitochondria. Cells were photoirradiated with green light (at maximum absorption for photosensitizer of […]) through the objective of microscope Axiovert 200M (Zeiss, Germany) for 1-2 min and analyzed 5 h later. Necrosis was determined by staining of nuclei with propidium iodide (2 μg/ml, 5 min).

OXYS rats = experiment: Cataract and macular dystrophy in senescence-accelerated OXYS rats; type: in vivo, rat
Procedure: The animals were housed in cages (45*35*35 cm) and kept under standard laboratory conditions (at 22±1° C., 60% relative humidity, and natural light), provided with a standard rodent diet (PK-120-1, Ltd. ‘Laboratorsnab’, Russia), and given water ad libitum. At the age of 1.5 months after preliminary pupil dilation with 1% tropicamide ophthalmic the rats were conducted through ophthalmoscopic examination using direct ophthalmoscop “Betta”, Germany. […] We use Vitamin E for a comparison with test antioxidants. Animals received the compounds on a small piece of dried bread before a regular meal, and the control group of animals received the same piece of bread without any compound. After completing the course of antioxidants the animals were retested with ophthalmoscope. To avoid human factor in the evaluation of compound effects the researcher who conducted the ophthalmoscopic examination was not told which of the animals received antioxidants. The lens state was evaluated according to the classification system accepted in clinical practice with grades ranging from 0 to 3: score 0—the lens is clear; score 1—spotted weak cloudiness; score 2—multiple spots of cloudiness and score 3—intense cloudiness of the lens core and nucleus.

Hela cells [8] = experiment: Morphology of HeLa cells; type: cell-based, human
Procedure: Normal fibroblasts from the human skin and lung and HeLa cells were cultivated at low cell density (20-30% confluency). Morphometric measurements were carried out for cell area, dispersion and elongation. Cytoskeleton structures were analyzed by staining the fixed cell preparations with rhodamine falloidin (actin filaments), antibodies against tubulin (microtubules) and vinculin (surface contacts). Mobility of the cells was examined with the help of microvideo camera.

Hela cells [9] = system: Hela cells
[10] = OXYS rats age 3 months after oral course

CC1=C(C)C(=O)C(CCCCCCCCCC[P+](c2ccccc2)(c2ccccc2)c2ccccc2)=CC1=O.[Br-] [SkQ1, 2,3-dimethyl-1,4-benzoquinon-5-decyl-triphenylphosphonium bromide]
penetration of planar bilayer phospholipid membrane [1]: penetrates the planar bilayer phospholipid membrane | autooxidation of the reduced (quinol) form by air oxygen relative to MitoQ [2]: about three-fold lower | oxidation rate in the presence of both air oxygen and superoxide radical relative to MitoQ ([3]; FIG. 3a): about two times higher | oxidation rate of quinol form by superoxide radical relative to MitoQ ([3]; oxidation by air oxygen subtracted, FIG. 3b): very much faster than MitoQ | concentration not suppressing mitochondrial respiration [4]: up to 10 μM | time compound retains intact under incubation conditions in biological media ([4]; whole experiment): at least tens of minutes | apoptosis among cell population (human lung fibroblasts; 100 μM H2O2): 7±3% | apoptosis among cell population (human lung fibroblasts; 200 μM H2O2): 12±5% | H2O2 concentration in the medium (Hela cells [5]; 24 hours after contact, inductor cells preincubated): 40 ± 10 nM | apoptosis at slide-recipient (Hela cells [5]; preincubation of inducer with 20 nM): 17±3% | apoptosis at slide-recipient (Hela cells [5]; preincubation of recipient cells): 16±4% | protective effect on recipient cells (Hela cells [5]; corrected for 12±3% apoptosis from emetine): ~100% | apoptosis at slide-inducer caused by TNF (Hela cells [5]; inductor cells incubated with 20 nM for 6 days): 90±5% | H2O2 concentration in the medium (Hela cells [5]; recipient cells preincubated): did not lead to decrease of H2O2 concentration | light-dependent inactivation of gramicidin [6]: completely prevents | necrotic cell death (Hela cells [7]; 1 μM added 1 h before photoirradiation): 15±5% | necrosis from photodynamic treatment (Hela cells [7]; preincubated with 20 nM for 6 days): 25±5% | 2nd stage of cataract (OXYS rats; [10]): all of them were defined as the 1st stage of cataract | 2nd stage of macular degeneration (OXYS rats; [10]): also were defined as the 1st stage of macular degeneration | changes in the macular area of the retina (OXYS rats; [10]): 38% | eyes with lens changes (OXYS rats; OXYS rats age 3 months after oral course from 1.5 to 3 months): 46% | amount of actin filaments (Hela cells [8]): increased | mean density of filaments (Hela cells [8]): not changed | mean area, times higher (Hela cells [8]; same treatment as fibroblasts): 2.6 times | LD50 in the presence of hydrogen peroxide (Hela cells [9]; 100 μM hydrogen peroxide): 20 µM | LD50 (concentrations at which 50% cells die) (Hela cells [9]; 2 h of incubation, no hydrogen peroxide): 20 µM
